From patent US7825123B2, “Isoxazolo[4,5]pyridin-3-yl-piperazin derivatives useful as modulators of dopamine D3 receptors” (Hoffmann-La Roche Inc., priority 2008, dated 2010)

What follows are molecules tested against T1, human D3 dopamine receptor (Homo sapiens, UniProt P35462) (assay: radioligand binding ([3H]-spiperone) to cloned human D3 receptors expressed in HEK-293 EBNA cells). Conditions: [3H]-spiperone approx. 0.5 nM, HEK-293 EBNA membranes, 1 h at RT; Ki by Cheng-Prusoff.
T1 construct: expressed in transfected cells; host or cells: HEK-293 EBNA cells, transient transfection; membrane preparation
T1 sequence (P35462 whole entry): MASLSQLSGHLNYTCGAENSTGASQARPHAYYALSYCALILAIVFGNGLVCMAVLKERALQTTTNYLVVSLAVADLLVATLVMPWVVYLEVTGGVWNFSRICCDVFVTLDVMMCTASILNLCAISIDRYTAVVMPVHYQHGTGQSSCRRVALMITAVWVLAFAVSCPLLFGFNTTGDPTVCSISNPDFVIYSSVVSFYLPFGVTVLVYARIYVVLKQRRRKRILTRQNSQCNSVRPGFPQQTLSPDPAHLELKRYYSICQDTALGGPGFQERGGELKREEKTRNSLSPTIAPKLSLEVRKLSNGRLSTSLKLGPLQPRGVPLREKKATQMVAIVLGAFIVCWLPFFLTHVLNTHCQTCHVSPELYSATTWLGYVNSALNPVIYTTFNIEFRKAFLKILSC
Protocol: The cells were harvested 48 h post-transfection, washed three times with cold PBS and stored at −80° C. prior to use. The pellet was suspended in cold 50 mM Tris-HCl buffer containing 10 mM EDTA (pH 7.4) and homogenized with a Polytron (Kinematica AG, Basel, Switzerland) for 20-30 sec at 12.000 rpm. After centrifugation at 48.000×g for 30 min at 4° C., the pellet was resuspended in cold 10 mM Tris-HCl buffer containing 0.1 mM EDTA (pH 7.4), homogenized, and centrifuged as above. This pellet was further resuspended in a smaller volume of ice cold 10 mM Tris-HCl buffer containing 0.1 mM EDTA (pH 7.4) and homogenized with a Polytron for 20-30 sec at 12.000 rpm. The protein content of this homogenate was determined with the Bio-Rad (Bradford) Protein Assay (Biorad Laboratories GmbH, München, Germany) according to the instructions of the manufacturer using gamma globulin as the standard. This homogenate was stored at −80° C. in aliquots and thawed immediately prior to use.
Aliquots of membrane preparations were thawed at RT, resuspended in assay buffer (50 mM Tris-HCl, 120 mM NaCl, 5 mM MgCl2, 1 mM EDTA, 5 mM KCl, 1.5 mM CaCl2, pH=7.4), homogenized with a Polytron for 20-30 sec at 12.000 rpm and adjusted to a final concentration of approximately 7.5 μg protein/well.
The binding affinity (Ki) of the compounds was determined using radioligand binding. Membranes were incubated in a total volume of 200 μl with a fixed concentration of radioligand (final concentration approximately 0.5 nM [^3H]-spiperone) and ten concentrations of test compound in ranging between 10 μM-0.1 nM for 1 h at RT. […] The nonspecific binding was determined with equally composed reaction mixtures in the presence of 10 μM unlabelled spiperone. Per well 45 μl of Microscint 40 (Perkin Elmer, Schwerzenbach, Switzerland) was added, plates for sealed, shaken for 20 min and counted for 3 min on a Topcount Microplate Scintillation Counter (Canberra Packard SA, Zürich, Switzerland) with quenching correction.
The CPM value for each duplicate of a concentration of competing compound was averaged (y1), then the % specific binding was calculated according to the equation (((y1−non-specific)/(total binding−non-specific))×100). Graphs were plotted with the % specific binding using XLfit, a curve fitting program that iteratively plots the data using Levenburg Marquardt algorithm. The single site competition analysis equation used was y=A+((B−A)/(1+((x/C)^D))), where y is the % specific binding, A is the minimum y, B is the maximum y, C is the IC50, x is the log10 of the concentration of the competing compound and D is the slope of the curve (the Hill Coefficient). […] The affinity constant (Ki) was calculated using the Cheng-Prusoff equation Ki=(IC50/1+([L]/Kd), where [L] is the concentration of radioligand and Kd is the dissociation constant of the radioligand at the receptor as determined by the saturation isotherm.
CC(=O)N[C@H]1CC[C@H](CCN2CCN(c3noc4ccncc34)CC2)CC1 [Example 1, N-{trans-4-[2-(4-Isoxazolo[4,5-c]pyridin-3-yl-piperazin-1-yl)-ethyl]-cyclohexyl}-acetamide] was tested, and the Ki was 40.4 nM. For COCCC(=O)N[C@H]1CC[C@H](CCN2CCN(c3noc4ccncc34)CC2)CC1 [Example 2, N-{trans-4-[2-(4-Isoxazolo[4,5-c]pyridin-3-yl-piperazin-1-yl)-ethyl]-cyclohexyl}-3-methoxy-propionamide], the Ki was 24.3 nM. Work on CCC(=O)N[C@H]1CC[C@H](CCN2CCN(c3noc4ccncc34)CC2)CC1 [Example 3, N-{trans-4-[2-(4-Isoxazolo[4,5-c]pyridin-3-yl-piperazin-1-yl)-ethyl]-cyclohexyl}-propionamide] yielded a Ki of 12.4 nM. With O=C(CC1CC1)N[C@H]1CC[C@H](CCN2CCN(c3noc4ccncc34)CC2)CC1 [Example 4, 2-Cyclopropyl-N-{trans-4-[2-(4-isoxazolo[4,5-c]pyridin-3-yl-piperazin-1-yl)-ethyl]-cyclohexyl}-acetamide] the Ki was 15.4 nM. O=C(CF)N[C@H]1CC[C@H](CCN2CCN(c3noc4ccncc34)CC2)CC1 [Example 5, 2-Fluoro-N-{trans-4-[2-(4-isoxazolo[4,5-c]pyridin-3-yl-piperazin-1-yl)-ethyl]-cyclohexyl}-acetamide] gave a Ki of 43 nM. For O=C(N[C@H]1CC[C@H](CCN2CCN(c3noc4ccncc34)CC2)CC1)c1ccc(F)cc1 [Example 6, 4-Fluoro-N-{trans-4-[2-(4-isoxazolo[4,5-c]pyridin-3-yl-piperazin-1-yl)-ethyl]-cyclohexyl}-benzamide], the Ki was 97 nM. O=C(N[C@H]1CC[C@H](CCN2CCN(c3noc4ccncc34)CC2)CC1)c1ccc(F)nc1 [Example 7, 6-Fluoro-N-{trans-4-[2-(4-isoxazolo[4,5-c]pyridin-3-yl-piperazin-1-yl)-ethyl]-cyclohexyl}-nicotinamide] gave a Ki of 63 nM.
